Measurements as given in US9290688B2, “Alkaline microbial enhanced oil recovery” (GEO FOSSIL FUELS, LLC, priority 2011, dated 2016).

Columns and labels:
[1] = system: Rhodococcus rhodochrous ATCC #53968; test: End of digestion: oil and aqueous volumes, acid number by alcoholic alkaline extraction and back titration; type: cell-based; conditions: one ml of oil, alcoholic alkaline extraction, back titration; acrylic acid value per gram of oil emulsion
Experimental: An oil degrading microorganism was used to evaluate the use of chemical inhibitors to slow the utilization of hydrocarbons in petroleum. In a non-limiting example, three different chemical compounds that have been reported to inhibit beta-oxidation were tested in oil and culture medium on a petroleum sample with a strain of Rhodococcus rhodochrous ATCC #53968 in m9 minimal medium. To test the ability of each chemical inhibitor to slow the consumption of fatty acids a culture of bacteria was grown on a crude oil sample for a period of three days with crude petroleum oil as the only carbon source. Four separate flasks were set up, each with an oil to aqueous media ratio of 1 to 5 (10 ml of crude oil to 50 ml of culture medium). Each of the three chemical inhibitors was added to a separate flask and a fourth flask was allowed to digest without the addition of a chemical inhibitor as a control. The flasks were shaken at a room temperature of about 25° C. under aerobic conditions. The progress of the microbial digestion was monitored by the optical density at 600 nm and by visual inspection of the brown oil color in the aqueous phase. Three days after the addition of inhibitors, or a total of six days of incubation with oil, a small sample of oil (0.31 g) was removed. A second sample of the same size was remover after another 6 days. The organic acids were extracted from each oil sample with 1% NaOH in 70% ethanol. […]
At the end of the experiment the oil and water were separated and the volume determined. […] This would have under reported the amount of methyl esters determined by GC analysis. The amount of aqueous phase was determined to be 22.5 ml for the acrylic acid sample and 46 ml, 48 ml and 47.5 ml for the others. […] The calculated acid number for the uninhibited digestion was 5 mg of KOH per gram. The other two inhibited digestions were analyzed to be 4.5 mg for the 2-bromooctanoic acid and 6.5 for the 2-bromohexadecanoic acid inhibited digestion. The undigested oil was determined to have an acid number of 6.5 mg of KOH by analysis of a one gram sample and a 10 gram sample. […]

[2] = system: Rhodococcus rhodochrous ATCC #53968; test: Growth of bacteria on crude oil with inhibitors, optical density at 600 nm; type: cell-based
Experimental: An oil degrading microorganism was used to evaluate the use of chemical inhibitors to slow the utilization of hydrocarbons in petroleum. In a non-limiting example, three different chemical compounds that have been reported to inhibit beta-oxidation were tested in oil and culture medium on a petroleum sample with a strain of Rhodococcus rhodochrous ATCC #53968 in m9 minimal medium. To test the ability of each chemical inhibitor to slow the consumption of fatty acids a culture of bacteria was grown on a crude oil sample for a period of three days with crude petroleum oil as the only carbon source. Four separate flasks were set up, each with an oil to aqueous media ratio of 1 to 5 (10 ml of crude oil to 50 ml of culture medium). Each of the three chemical inhibitors was added to a separate flask and a fourth flask was allowed to digest without the addition of a chemical inhibitor as a control. The flasks were shaken at a room temperature of about 25° C. under aerobic conditions. The progress of the microbial digestion was monitored by the optical density at 600 nm and by visual inspection of the brown oil color in the aqueous phase. Three days after the addition of inhibitors, or a total of six days of incubation with oil, a small sample of oil (0.31 g) was removed. A second sample of the same size was remover after another 6 days. The organic acids were extracted from each oil sample with 1% NaOH in 70% ethanol. The samples were shaken vigorously for one minute. The aqueous extract material was then extracted with hexane to remove any trace of oil. The samples of extracted organic acids were then dried under vacuum and converted to methyl esters with BF3 in methanol.
Digestion with the bacteria increases the total amount of carboxylic acids in all the samples. The digestions with the chemical beta-oxidation inhibitors produce about the same or a little more total methyl ester peaks than the bacterial digestion without an inhibitor. […] The later eluting peaks increase at a faster rate with the inhibitors than without. For example, the 12 day sample with no inhibitor increase from 5.9 to 45.9 area units for peaks up to 13 minutes. The sample with the acrylic acid inhibitor has an increase of from 5.9 to 43.7 area units, which is less than without inhibitor. The later eluting peaks increase from 3.6 to 14.3 without the inhibitor, but with acrylic acid the later peak areas increase to 22.5 area units. […] After 6 days of digestion the optical density had reached 2.23 for the uninhibited digestion as compared to 0.49 for the acrylic acid inhibited sample and 1.84 for the 2-bromooctanoic acid and 2.4 for the 2-bromohexadeconoic acid. After 12 days of digestion the uninhibited sample had reached 4.0 and the acrylic acid had increased to 1.7 and 2.2 and 2.4 for the other two inhibitors. Therefore, by this experimental analysis one can determine which inhibitors increase the carboxylic acid content or the acid number of the oil fastest with the least amount of oil consumption. The oil consumption can be determined by quantitation of remaining oil or by growth of bacteria were oil is the only carbon source. It appears that all the inhibitors helped reduce the utilization of fatty acids and the consumption of oil while producing an increase in acid number.

[3] = after 6 days of digestion, crude oil only carbon source

| Compound | final analysis acid number [1] | optical density [2, 3] | optical density ([2]; after 12 days of digestion) |
| --- | --- | --- | --- |
| CCCCCCC(Br)C(=O)O (stereo not drawn) [Br C8, 2-bromooctanoic acid] | 4.5 mg KOH per gram | 1.84 | 2.2 |
| C=CC(=O)O [AA, acrylic acid] | 10 mg KOH per gram | 0.49 | 1.7 |
